Reference: the kinase profiling compilation of Christmann-Franck et al. (2016)
Values joined by “and” are separate entries in the source; they are usually repeats but may differ in a detail not shown here. Identical values can stand only once.

How the values were obtained:
Assay in all cases: radiometric filter-binding kinase assay, Kinase HotSpot
Conditions in all cases: compound 0.5 µM; ATP 10 µM
STK10 (human) = STK10 (human) (UniProt O94804)
TAOK2 (human) = TAOK2 (human) (UniProt Q9UL54)
LCK (human) = LCK (human) (UniProt P06239)
CAMK1 (human) = CAMK1 (human) (UniProt Q14012)
DYRK4 (human) = DYRK4 (human) (UniProt Q9NR20)
STK17A (human) = STK17A (human) (UniProt Q9UEE5)
MET (human) = MET (human) (UniProt P08581)
CDK5 CDK5R1 p35 (human) = CDK5 CDK5R1 p35 (human) (UniProt Q00535+Q15078)
SYK (human) = SYK (human) (UniProt P43405)
MAP3K5 (human) = MAP3K5 (human) (UniProt Q99683)
PAK7 (human) = PAK7 (human) (UniProt Q9P286)
CAMK2A (human) = CAMK2A (human) (UniProt Q9UQM7)
PRKG1 (human) = PRKG1 (human) (UniProt Q13976)
MAP3K10 (human) = MAP3K10 (human) (UniProt Q02779)
MAP4K2 (human) = MAP4K2 (human) (UniProt Q12851)
MAP3K14 (human) = MAP3K14 (human) (UniProt Q99558)
IKBKE (human) = IKBKE (human) (UniProt Q14164)
MINK1 (human) = MINK1 (human) (UniProt Q8N4C8)
MUSK (human) = MUSK (human) (UniProt O15146)
GRK4 (human) = GRK4 (human) (UniProt P32298)
MYLK (human) = MYLK (human) (UniProt Q15746)
CLK2 (human) = CLK2 (human) (UniProt P49760)
MARK1 (human) = MARK1 (human) (UniProt Q9P0L2)
ADRBK1 (human) = ADRBK1 (human) (UniProt P25098)
PAK2 (human) = PAK2 (human) (UniProt Q13177)
CDK6 CCND1 (human) = CDK6 CCND1 (human) (UniProt Q00534+P24385)
STK25 (human) = STK25 (human) (UniProt O00506)
RPS6KA2 KD1 KD2 (human) = RPS6KA2 KD1 KD2 (human) (UniProt Q15349)
DMPK (human) = DMPK (human) (UniProt Q09013)
KIT (human) = KIT (human) (UniProt P10721)
PLK2 (human) = PLK2 (human) (UniProt Q9NYY3)
NTRK3 (human) = NTRK3 (human) (UniProt Q16288)
TAOK1 (human) = TAOK1 (human) (UniProt Q7L7X3)
DAPK3 (human) = DAPK3 (human) (UniProt O43293)
PRKCE (human) = PRKCE (human) (UniProt Q02156)
NUAK1 (human) = NUAK1 (human) (UniProt O60285)
HIPK4 (human) = HIPK4 (human) (UniProt Q8NE63)
AKT2 (human) = AKT2 (human) (UniProt P31751)
SRPK1 (human) = SRPK1 (human) (UniProt Q96SB4)
RPS6KB1 (human) = RPS6KB1 (human) (UniProt P23443)
MAPK13 (human) = MAPK13 (human) (UniProt O15264)
CSNK1D (human) = CSNK1D (human) (UniProt P48730)
Chain of CSNK1D (human) (P48730 whole entry, looked up): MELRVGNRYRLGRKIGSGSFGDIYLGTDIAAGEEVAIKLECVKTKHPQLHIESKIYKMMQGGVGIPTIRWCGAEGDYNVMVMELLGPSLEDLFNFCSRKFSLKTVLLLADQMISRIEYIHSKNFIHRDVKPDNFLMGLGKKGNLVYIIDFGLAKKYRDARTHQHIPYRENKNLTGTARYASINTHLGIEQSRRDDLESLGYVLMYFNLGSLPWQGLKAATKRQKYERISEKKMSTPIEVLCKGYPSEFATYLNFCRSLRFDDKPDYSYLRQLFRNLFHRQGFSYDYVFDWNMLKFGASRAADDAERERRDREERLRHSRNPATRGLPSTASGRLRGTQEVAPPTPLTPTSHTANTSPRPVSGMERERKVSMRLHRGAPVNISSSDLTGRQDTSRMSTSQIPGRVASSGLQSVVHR

Chain of STK10 (human) (O94804 whole entry, looked up): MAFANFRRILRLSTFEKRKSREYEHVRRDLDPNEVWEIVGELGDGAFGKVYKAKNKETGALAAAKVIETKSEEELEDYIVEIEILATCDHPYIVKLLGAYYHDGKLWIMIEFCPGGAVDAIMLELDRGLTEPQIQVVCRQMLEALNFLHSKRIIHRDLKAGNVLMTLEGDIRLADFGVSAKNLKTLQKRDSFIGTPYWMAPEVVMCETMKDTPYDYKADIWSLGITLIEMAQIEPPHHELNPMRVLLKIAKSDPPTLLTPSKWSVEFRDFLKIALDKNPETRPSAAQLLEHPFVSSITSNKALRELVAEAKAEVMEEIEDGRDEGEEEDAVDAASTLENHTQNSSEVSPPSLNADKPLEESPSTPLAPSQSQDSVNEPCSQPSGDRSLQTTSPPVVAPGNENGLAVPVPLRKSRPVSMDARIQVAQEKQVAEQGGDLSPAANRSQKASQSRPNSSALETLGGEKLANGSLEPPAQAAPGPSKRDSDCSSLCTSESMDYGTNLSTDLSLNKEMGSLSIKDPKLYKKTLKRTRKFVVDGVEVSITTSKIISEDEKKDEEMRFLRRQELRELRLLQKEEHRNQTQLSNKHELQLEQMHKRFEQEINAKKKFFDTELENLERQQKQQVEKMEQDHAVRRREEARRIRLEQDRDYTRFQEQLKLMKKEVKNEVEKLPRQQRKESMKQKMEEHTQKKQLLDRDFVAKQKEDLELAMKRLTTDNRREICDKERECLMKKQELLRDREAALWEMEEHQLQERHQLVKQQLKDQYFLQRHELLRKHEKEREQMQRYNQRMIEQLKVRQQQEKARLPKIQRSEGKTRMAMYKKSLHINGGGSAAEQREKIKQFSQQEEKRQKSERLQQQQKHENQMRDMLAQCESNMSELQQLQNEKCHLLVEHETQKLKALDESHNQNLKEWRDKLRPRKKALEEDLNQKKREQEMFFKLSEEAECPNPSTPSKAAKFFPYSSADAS
Chain of MARK1 (human) (Q9P0L2 whole entry, looked up): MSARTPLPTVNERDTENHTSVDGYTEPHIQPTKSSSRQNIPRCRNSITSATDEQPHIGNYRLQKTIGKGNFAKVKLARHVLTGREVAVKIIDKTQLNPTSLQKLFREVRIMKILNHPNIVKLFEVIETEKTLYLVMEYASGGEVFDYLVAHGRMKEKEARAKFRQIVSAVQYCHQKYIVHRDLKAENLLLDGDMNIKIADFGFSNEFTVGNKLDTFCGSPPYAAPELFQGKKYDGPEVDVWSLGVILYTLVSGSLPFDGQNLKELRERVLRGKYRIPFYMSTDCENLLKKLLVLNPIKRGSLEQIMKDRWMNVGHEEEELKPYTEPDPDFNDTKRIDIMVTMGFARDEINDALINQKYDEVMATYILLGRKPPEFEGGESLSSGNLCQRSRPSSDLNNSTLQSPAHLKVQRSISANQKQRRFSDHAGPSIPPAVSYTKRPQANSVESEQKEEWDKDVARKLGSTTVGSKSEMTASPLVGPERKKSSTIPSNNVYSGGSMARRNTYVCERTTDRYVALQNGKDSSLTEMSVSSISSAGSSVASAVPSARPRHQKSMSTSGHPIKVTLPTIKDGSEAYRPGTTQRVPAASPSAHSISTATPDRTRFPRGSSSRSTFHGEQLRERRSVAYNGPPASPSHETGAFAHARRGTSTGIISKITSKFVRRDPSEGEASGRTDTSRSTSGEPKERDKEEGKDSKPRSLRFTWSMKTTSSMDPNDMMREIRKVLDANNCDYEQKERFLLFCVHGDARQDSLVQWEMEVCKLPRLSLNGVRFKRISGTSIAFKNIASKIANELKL
Chain of MUSK (human) (O15146 whole entry, looked up): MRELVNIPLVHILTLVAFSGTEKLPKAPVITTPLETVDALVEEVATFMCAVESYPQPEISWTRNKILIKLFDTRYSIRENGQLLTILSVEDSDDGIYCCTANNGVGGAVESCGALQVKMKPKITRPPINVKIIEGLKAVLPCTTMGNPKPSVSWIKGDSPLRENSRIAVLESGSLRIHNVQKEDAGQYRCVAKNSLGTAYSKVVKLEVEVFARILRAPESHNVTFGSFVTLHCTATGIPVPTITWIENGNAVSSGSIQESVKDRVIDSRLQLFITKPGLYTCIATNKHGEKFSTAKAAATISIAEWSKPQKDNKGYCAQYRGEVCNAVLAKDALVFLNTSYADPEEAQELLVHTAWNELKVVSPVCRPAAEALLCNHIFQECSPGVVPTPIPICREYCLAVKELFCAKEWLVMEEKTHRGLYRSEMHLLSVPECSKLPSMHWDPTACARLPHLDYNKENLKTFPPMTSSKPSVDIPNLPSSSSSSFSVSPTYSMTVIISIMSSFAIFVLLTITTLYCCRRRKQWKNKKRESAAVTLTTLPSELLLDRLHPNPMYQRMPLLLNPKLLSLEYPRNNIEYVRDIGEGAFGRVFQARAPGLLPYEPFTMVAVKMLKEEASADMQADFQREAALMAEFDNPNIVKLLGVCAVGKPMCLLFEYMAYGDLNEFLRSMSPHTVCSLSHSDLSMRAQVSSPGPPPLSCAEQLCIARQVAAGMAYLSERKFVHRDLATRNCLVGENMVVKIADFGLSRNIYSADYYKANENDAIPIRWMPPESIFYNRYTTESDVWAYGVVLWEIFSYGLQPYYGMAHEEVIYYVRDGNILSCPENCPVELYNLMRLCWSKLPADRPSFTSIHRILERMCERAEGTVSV
Chain of RPS6KB1 (human) (P23443 whole entry, looked up): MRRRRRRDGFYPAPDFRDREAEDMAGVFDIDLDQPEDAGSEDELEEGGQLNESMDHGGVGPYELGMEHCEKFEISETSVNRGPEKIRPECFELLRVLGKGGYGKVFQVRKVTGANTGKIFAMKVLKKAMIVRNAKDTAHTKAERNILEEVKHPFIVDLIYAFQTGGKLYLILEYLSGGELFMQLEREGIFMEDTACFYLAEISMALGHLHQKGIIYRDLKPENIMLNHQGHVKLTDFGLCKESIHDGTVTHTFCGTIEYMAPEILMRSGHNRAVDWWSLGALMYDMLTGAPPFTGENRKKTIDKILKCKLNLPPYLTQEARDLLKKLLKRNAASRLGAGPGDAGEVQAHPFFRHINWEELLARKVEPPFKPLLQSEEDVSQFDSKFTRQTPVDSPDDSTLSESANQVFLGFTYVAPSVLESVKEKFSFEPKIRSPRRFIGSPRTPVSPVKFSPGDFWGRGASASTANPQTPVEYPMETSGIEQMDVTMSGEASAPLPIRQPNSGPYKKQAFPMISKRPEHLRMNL
Chain of MAP3K14 (human) (Q99558 whole entry, looked up): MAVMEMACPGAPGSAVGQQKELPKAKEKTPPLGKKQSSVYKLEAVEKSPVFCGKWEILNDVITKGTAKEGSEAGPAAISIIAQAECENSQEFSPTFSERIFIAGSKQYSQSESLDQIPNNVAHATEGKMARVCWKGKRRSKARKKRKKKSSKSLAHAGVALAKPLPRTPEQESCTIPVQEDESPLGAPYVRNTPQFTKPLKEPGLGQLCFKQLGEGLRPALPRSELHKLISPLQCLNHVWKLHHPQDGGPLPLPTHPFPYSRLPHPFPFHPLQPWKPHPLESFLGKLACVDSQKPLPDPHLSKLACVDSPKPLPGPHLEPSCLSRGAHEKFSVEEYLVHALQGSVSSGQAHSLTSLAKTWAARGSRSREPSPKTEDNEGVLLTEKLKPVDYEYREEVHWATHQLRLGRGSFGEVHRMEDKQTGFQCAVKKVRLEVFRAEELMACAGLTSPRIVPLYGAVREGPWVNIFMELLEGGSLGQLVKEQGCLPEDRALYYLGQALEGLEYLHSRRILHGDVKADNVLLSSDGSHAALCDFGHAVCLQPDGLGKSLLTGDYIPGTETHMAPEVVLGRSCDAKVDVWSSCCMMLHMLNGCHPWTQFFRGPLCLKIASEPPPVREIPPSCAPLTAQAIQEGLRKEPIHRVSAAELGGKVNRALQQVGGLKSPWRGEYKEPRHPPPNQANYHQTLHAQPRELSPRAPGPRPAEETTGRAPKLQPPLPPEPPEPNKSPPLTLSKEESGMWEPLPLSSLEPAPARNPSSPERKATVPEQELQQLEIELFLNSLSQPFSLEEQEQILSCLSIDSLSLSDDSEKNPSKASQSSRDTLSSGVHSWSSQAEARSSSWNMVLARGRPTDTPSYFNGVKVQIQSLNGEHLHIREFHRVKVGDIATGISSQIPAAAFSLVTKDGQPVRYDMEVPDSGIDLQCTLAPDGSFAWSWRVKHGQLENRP
Chain of STK17A (human) (Q9UEE5 whole entry, looked up): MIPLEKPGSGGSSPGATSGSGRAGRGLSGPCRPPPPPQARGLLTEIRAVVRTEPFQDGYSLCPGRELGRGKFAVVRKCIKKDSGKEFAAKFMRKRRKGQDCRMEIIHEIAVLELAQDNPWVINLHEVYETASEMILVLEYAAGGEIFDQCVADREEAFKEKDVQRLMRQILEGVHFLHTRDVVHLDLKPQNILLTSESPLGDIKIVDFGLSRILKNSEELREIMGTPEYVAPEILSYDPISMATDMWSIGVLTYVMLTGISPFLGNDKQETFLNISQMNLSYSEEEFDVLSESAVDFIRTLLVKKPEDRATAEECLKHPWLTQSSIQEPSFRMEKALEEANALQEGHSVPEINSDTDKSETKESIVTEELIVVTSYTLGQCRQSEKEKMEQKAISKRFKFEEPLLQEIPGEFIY

## O=C1Cc2c([nH]c3ccc([N+](=O)[O-])cc23)-c2ccccc2N1
STK10 (human)
  residual activity: 80.4%
TAOK2 (human)
  residual activity: 88.9%
LCK (human)
  residual activity: 81.2%
CAMK1 (human)
  residual activity: 94.8%
DYRK4 (human)
  residual activity: 106%
STK17A (human)
  residual activity: 46.4%
MET (human)
  residual activity: 117%
CDK5 CDK5R1 p35 (human)
  residual activity: 7.98%
SYK (human)
  residual activity: 53.9%
MAP3K5 (human)
  residual activity: 101%
PAK7 (human)
  residual activity: 71.4%
CAMK2A (human)
  residual activity: 88.4%
PRKG1 (human)
  residual activity: 94.3% and 96.8%
MAP3K10 (human)
  residual activity: 48.6%
MAP4K2 (human)
  residual activity: 8.77%
MAP3K14 (human)
  residual activity: 132%
IKBKE (human)
  residual activity: 93.4%
MINK1 (human)
  residual activity: 20.4%
MUSK (human)
  residual activity: 68.5%
GRK4 (human)
  residual activity: 99.3%
MYLK (human)
  residual activity: 88.8%
CLK2 (human)
  residual activity: 97.7%
MARK1 (human)
  residual activity: 62.5%
ADRBK1 (human)
  residual activity: 91.8%
PAK2 (human)
  residual activity: 41%
CDK6 CCND1 (human)
  residual activity: 16.8%
STK25 (human)
  residual activity: 83.6%
RPS6KA2 KD1 KD2 (human)
  residual activity: 62%
DMPK (human)
  residual activity: 91.6%
KIT (human)
  residual activity: 83.7%
PLK2 (human)
  residual activity: 106%
NTRK3 (human)
  residual activity: 63.4%
TAOK1 (human)
  residual activity: 66.9%
DAPK3 (human)
  residual activity: 103%
PRKCE (human)
  residual activity: 111%
NUAK1 (human)
  residual activity: 12%
HIPK4 (human)
  residual activity: 103%
AKT2 (human)
  residual activity: 101%
SRPK1 (human)
  residual activity: 100%
RPS6KB1 (human)
  residual activity: 103%

## Nc1nc(Nc2ccc(S(N)(=O)=O)cc2)nn1C(=S)Nc1c(F)cccc1F
STK10 (human)
  residual activity: 3.96%
TAOK2 (human)
  residual activity: 11.5%
LCK (human)
  residual activity: 23.6%
DYRK4 (human)
  residual activity: 96.5%
STK17A (human)
  residual activity: 11.1%
MET (human)
  residual activity: 40.4%
CDK5 CDK5R1 p35 (human)
  residual activity: 11.3%
SYK (human)
  residual activity: 15.5%
MAP3K5 (human)
  residual activity: 1.12%
PAK7 (human)
  residual activity: 43.8%
CAMK2A (human)
  residual activity: 14.3%
PRKG1 (human)
  residual activity: 85.1% and 91.3%
MAPK13 (human)
  residual activity: 77.1%
MAP3K10 (human)
  residual activity: 3%
MAP4K2 (human)
  residual activity: 2.13%
MAP3K14 (human)
  residual activity: 29.1%
IKBKE (human)
  residual activity: 67.2%
MINK1 (human)
  residual activity: 3.06%
MUSK (human)
  residual activity: 8.02%
GRK4 (human)
  residual activity: 92.2%
MYLK (human)
  residual activity: 78.8%
CLK2 (human)
  residual activity: 3.81%
MARK1 (human)
  residual activity: 2.68%
ADRBK1 (human)
  residual activity: 97.8%
PAK2 (human)
  residual activity: 26.4%
CDK6 CCND1 (human)
  residual activity: 2.89%
STK25 (human)
  residual activity: 8.18%
RPS6KA2 KD1 KD2 (human)
  residual activity: 2.08%
DMPK (human)
  residual activity: 78.4%
CSNK1D (human)
  residual activity: 83.7%
KIT (human)
  residual activity: 78.4%
PLK2 (human)
  residual activity: 88.5%
NTRK3 (human)
  residual activity: 3.59%
TAOK1 (human)
  residual activity: 11.3%
DAPK3 (human)
  residual activity: 94.2%
PRKCE (human)
  residual activity: 11.5%
NUAK1 (human)
  residual activity: 2.13%
HIPK4 (human)
  residual activity: 50.6%
AKT2 (human)
  residual activity: 103%
SRPK1 (human)
  residual activity: 25.9%
RPS6KB1 (human)
  residual activity: 30%

## Nc1nc(Nc2ccc(S(N)(=O)=O)cc2)nn1C(=O)c1c(F)cccc1F
STK10 (human)
  residual activity: 17%
TAOK2 (human)
  residual activity: 8.92%
LCK (human)
  residual activity: 87.9%
CAMK1 (human)
  residual activity: 90.4%
DYRK4 (human)
  residual activity: 105%
STK17A (human)
  residual activity: 83.9%
MET (human)
  residual activity: 75.3%
CDK5 CDK5R1 p35 (human)
  residual activity: 0.212%
SYK (human)
  residual activity: 61.6%
MAP3K5 (human)
  residual activity: 103%
PAK7 (human)
  residual activity: 85.4%
CAMK2A (human)
  residual activity: 104%
PRKG1 (human)
  residual activity: 104% and 86.1%
MAPK13 (human)
  residual activity: 94.8%
MAP3K10 (human)
  residual activity: 77.8%
MAP4K2 (human)
  residual activity: 58.4%
MAP3K14 (human)
  residual activity: 106%
IKBKE (human)
  residual activity: 95.9%
MINK1 (human)
  residual activity: 98.1%
MUSK (human)
  residual activity: 83.1%
GRK4 (human)
  residual activity: 94.7%
MYLK (human)
  residual activity: 80%
CLK2 (human)
  residual activity: 71.5%
MARK1 (human)
  residual activity: 64.1%
ADRBK1 (human)
  residual activity: 97.3%
CDK6 CCND1 (human)
  residual activity: 17.1%
STK25 (human)
  residual activity: 82.3%
RPS6KA2 KD1 KD2 (human)
  residual activity: 42.2%
DMPK (human)
  residual activity: 93.2%
CSNK1D (human)
  residual activity: 94.5%
KIT (human)
  residual activity: 81.7%
PLK2 (human)
  residual activity: 94.2%
NTRK3 (human)
  residual activity: 37.6%
TAOK1 (human)
  residual activity: 18.8%
DAPK3 (human)
  residual activity: 99.4%
PRKCE (human)
  residual activity: 97.2%
NUAK1 (human)
  residual activity: 3.29%
HIPK4 (human)
  residual activity: 67.7%
AKT2 (human)
  residual activity: 107%
SRPK1 (human)
  residual activity: 86.4%
RPS6KB1 (human)
  residual activity: 92.1%

## O=C1Nc2ccccc2/C1=C\c1c(Cl)[nH]c2ccccc12
STK10 (human)
  residual activity: 90.9%
TAOK2 (human)
  residual activity: 104%
LCK (human)
  residual activity: 95.5%
CAMK1 (human)
  residual activity: 106%
DYRK4 (human)
  residual activity: 97.4%
STK17A (human)
  residual activity: 95.2%
MET (human)
  residual activity: 109%
CDK5 CDK5R1 p35 (human)
  residual activity: 86.7%
SYK (human)
  residual activity: 102%
MAP3K5 (human)
  residual activity: 107%
CAMK2A (human)
  residual activity: 103%
PRKG1 (human)
  residual activity: 92.5% and 93.6%
MAPK13 (human)
  residual activity: 98.9%
MAP3K10 (human)
  residual activity: 94.7%
MAP4K2 (human)
  residual activity: 97.9%
MAP3K14 (human)
  residual activity: 92.6%
IKBKE (human)
  residual activity: 98%
MINK1 (human)
  residual activity: 94.9%
MUSK (human)
  residual activity: 96.4%
GRK4 (human)
  residual activity: 102%
MYLK (human)
  residual activity: 90.4%
CLK2 (human)
  residual activity: 92.7%
MARK1 (human)
  residual activity: 96%
ADRBK1 (human)
  residual activity: 98.9%
CDK6 CCND1 (human)
  residual activity: 105%
STK25 (human)
  residual activity: 97.7%
RPS6KA2 KD1 KD2 (human)
  residual activity: 81.1%
DMPK (human)
  residual activity: 101%
CSNK1D (human)
  residual activity: 90.5%
KIT (human)
  residual activity: 90.2%
PLK2 (human)
  residual activity: 98.2%
NTRK3 (human)
  residual activity: 92.9%
TAOK1 (human)
  residual activity: 100%
DAPK3 (human)
  residual activity: 91.2%
PRKCE (human)
  residual activity: 95.1%
NUAK1 (human)
  residual activity: 86%
HIPK4 (human)
  residual activity: 98.8%
AKT2 (human)
  residual activity: 96.8%
SRPK1 (human)
  residual activity: 94.2%
RPS6KB1 (human)
  residual activity: 99.7%

## O=C(Nc1ccc(Cl)cc1)c1ccccc1NCc1ccncc1
STK10 (human)
  residual activity: 81.8%
TAOK2 (human)
  residual activity: 102%
LCK (human)
  residual activity: 93.3%
CAMK1 (human)
  residual activity: 103%
DYRK4 (human)
  residual activity: 104%
STK17A (human)
  residual activity: 94.7%
MET (human)
  residual activity: 92.2%
CDK5 CDK5R1 p35 (human)
  residual activity: 90.4%
SYK (human)
  residual activity: 93.6%
PAK7 (human)
  residual activity: 79.4%
CAMK2A (human)
  residual activity: 99.9%
PRKG1 (human)
  residual activity: 86.8% and 92.3%
MAPK13 (human)
  residual activity: 95.6%
MAP3K10 (human)
  residual activity: 104%
MAP4K2 (human)
  residual activity: 97.3%
MAP3K14 (human)
  residual activity: 114%
IKBKE (human)
  residual activity: 98.9%
MINK1 (human)
  residual activity: 96.9%
MUSK (human)
  residual activity: 95.9%
GRK4 (human)
  residual activity: 96.8%
MYLK (human)
  residual activity: 105%
CLK2 (human)
  residual activity: 91.8%
MARK1 (human)
  residual activity: 94.7%
ADRBK1 (human)
  residual activity: 98.2%
PAK2 (human)
  residual activity: 91%
CDK6 CCND1 (human)
  residual activity: 93.4%
STK25 (human)
  residual activity: 91.6%
RPS6KA2 KD1 KD2 (human)
  residual activity: 94.1%
DMPK (human)
  residual activity: 103%
CSNK1D (human)
  residual activity: 98.1%
KIT (human)
  residual activity: 33.6%
PLK2 (human)
  residual activity: 99.3%
NTRK3 (human)
  residual activity: 97%
TAOK1 (human)
  residual activity: 110%
DAPK3 (human)
  residual activity: 94%
PRKCE (human)
  residual activity: 97%
NUAK1 (human)
  residual activity: 96.5%
HIPK4 (human)
  residual activity: 103%
AKT2 (human)
  residual activity: 95.2%
SRPK1 (human)
  residual activity: 109%
RPS6KB1 (human)
  residual activity: 92.5%
